# Tested on: MOLT-4
# Test: Antiproliferative activity against human MOLT-4 cells
# Format: functional, cell-based
row,Compound,IC50
1,COC(=O)C1(C(=O)N2CCC3(CC2)C(=O)Nc2ncc(-c4cc(OC)c(OC)c(OC)c4)cc23)CC1,> 50 µM
2,COC(=O)C1(C(=O)N2CCC3(CC2)C(=O)Nc2ncc(-c4ccc5c(c4)OCO5)cc23)CC1,28.8 µM

# Tested on: Jurkat
# Test: Antiproliferative activity against human Jurkat cells
# Format: functional, cell-based
row,Compound,IC50
1,COC(=O)C1(C(=O)N2CCC3(CC2)C(=O)Nc2ncc(-c4cc(OC)c(OC)c(OC)c4)cc23)CC1,> 50 µM
2,COC(=O)C1(C(=O)N2CCC3(CC2)C(=O)Nc2ncc(-c4ccc5c(c4)OCO5)cc23)CC1,14.8 µM
3,O=C(N1CCC2(CC1)C(=O)Nc1ncc(-c3ccc4c(c3)OCO4)cc12)C1(F)CC1,2.25 µM
4,CC(C)(F)C(=O)N1CCC2(CC1)C(=O)Nc1ncc(-c3ccc4c(c3)OCO4)cc12,2.49 µM

# Tested on: CCRF-CEM
# Test: Antiproliferative activity against human CCRF-CEM cells
# Format: functional, cell-based
row,Compound,IC50
1,O=C(N1CCC2(CC1)C(=O)Nc1ncc(-c3ccc4c(c3)OCO4)cc12)C1(CF)CC1,25.5 µM
2,COC(=O)C1(C(=O)N2CCC3(CC2)C(=O)Nc2ncc(-c4cc(OC)c(OC)c(OC)c4)cc23)CC1,> 50 µM
3,COC(=O)C1(C(=O)N2CCC3(CC2)C(=O)Nc2ncc(-c4ccc5c(c4)OCO5)cc23)CC1,15.2 µM
4,O=C(N1CCC2(CC1)C(=O)Nc1ncc(-c3ccc4c(c3)OCO4)cc12)C1(F)CC1,7.26 µM
5,CC(C)(F)C(=O)N1CCC2(CC1)C(=O)Nc1ncc(-c3ccc4c(c3)OCO4)cc12,3.79 µM

# Tested on: CEM-DNR
# Test: Antiproliferative activity against human CEM-DNR cells
# Format: functional, cell-based
row,Compound,IC50
1,COC(=O)C1(C(=O)N2CCC3(CC2)C(=O)Nc2ncc(-c4cc(OC)c(OC)c(OC)c4)cc23)CC1,> 50 µM
2,COC(=O)C1(C(=O)N2CCC3(CC2)C(=O)Nc2ncc(-c4ccc5c(c4)OCO5)cc23)CC1,20.4 µM
3,O=C(N1CCC2(CC1)C(=O)Nc1ncc(-c3ccc4c(c3)OCO4)cc12)C1(F)CC1,11.9 µM
4,CC(C)(F)C(=O)N1CCC2(CC1)C(=O)Nc1ncc(-c3ccc4c(c3)OCO4)cc12,6.01 µM

# Tested on: not listed separately
# Test: Antiproliferative activity against human K562-Tax cells
# Format: functional, cell-based
row,Compound,IC50
1,COC(=O)C1(C(=O)N2CCC3(CC2)C(=O)Nc2ncc(-c4cc(OC)c(OC)c(OC)c4)cc23)CC1,> 50 µM
2,COC(=O)C1(C(=O)N2CCC3(CC2)C(=O)Nc2ncc(-c4ccc5c(c4)OCO5)cc23)CC1,12.5 µM
3,O=C(N1CCC2(CC1)C(=O)Nc1ncc(-c3ccc4c(c3)OCO4)cc12)C1(F)CC1,6.09 µM
4,CC(C)(F)C(=O)N1CCC2(CC1)C(=O)Nc1ncc(-c3ccc4c(c3)OCO4)cc12,3.68 µM

# Tested on: Ramos
# Test: Antiproliferative activity against human Ramos cells
# Format: functional, cell-based
row,Compound,IC50
1,COC(=O)C1(C(=O)N2CCC3(CC2)C(=O)Nc2ncc(-c4cc(OC)c(OC)c(OC)c4)cc23)CC1,> 50 µM
2,COC(=O)C1(C(=O)N2CCC3(CC2)C(=O)Nc2ncc(-c4ccc5c(c4)OCO5)cc23)CC1,23.9 µM
3,O=C(N1CCC2(CC1)C(=O)Nc1ncc(-c3ccc4c(c3)OCO4)cc12)C1(F)CC1,24.3 µM
4,CC(C)(F)C(=O)N1CCC2(CC1)C(=O)Nc1ncc(-c3ccc4c(c3)OCO4)cc12,16.4 µM

# Tested on: A549
# Test: Cytotoxicity against ITK/BTK null human A549 cells assessed as inhibition of cell growth by MTS assay
row,Compound,IC50
1,O=C(N1CCC2(CC1)C(=O)Nc1ncc(-c3ccc4c(c3)OCO4)cc12)C(F)(F)F,> 50 µM
2,CC(F)(F)C(=O)N1CCC2(CC1)C(=O)Nc1ncc(-c3ccc4c(c3)OCO4)cc12,> 50 µM
3,O=C(N1CCC2(CC1)C(=O)Nc1ncc(-c3ccc4c(c3)OCO4)cc12)C1(O)CC1,> 50 µM
4,O=C1Nc2ncc(-c3ccc4c(c3)OCO4)cc2C12CCN(S(=O)(=O)C(F)(F)F)CC2,> 50 µM

# Tested on: HCT-116
# Test: Cytotoxicity against ITK/BTK null human HCT-116 cells assessed as inhibition of cell growth by MTS assay
row,Compound,IC50
1,O=C(N1CCC2(CC1)C(=O)Nc1ncc(-c3ccc4c(c3)OCO4)cc12)C(F)(F)F,> 50 µM
2,CC(F)(F)C(=O)N1CCC2(CC1)C(=O)Nc1ncc(-c3ccc4c(c3)OCO4)cc12,> 50 µM
3,O=C(N1CCC2(CC1)C(=O)Nc1ncc(-c3ccc4c(c3)OCO4)cc12)C1(O)CC1,> 50 µM
4,O=C1Nc2ncc(-c3ccc4c(c3)OCO4)cc2C12CCN(S(=O)(=O)C(F)(F)F)CC2,> 50 µM

# Tested on: U2OS
# Test: Cytotoxicity against ITK/BTK null human U2OS cells assessed as inhibition of cell growth by MTS assay
row,Compound,IC50
1,O=C(N1CCC2(CC1)C(=O)Nc1ncc(-c3ccc4c(c3)OCO4)cc12)C(F)(F)F,> 50 µM
2,CC(F)(F)C(=O)N1CCC2(CC1)C(=O)Nc1ncc(-c3ccc4c(c3)OCO4)cc12,> 50 µM
3,O=C(N1CCC2(CC1)C(=O)Nc1ncc(-c3ccc4c(c3)OCO4)cc12)C1(O)CC1,> 50 µM
4,O=C1Nc2ncc(-c3ccc4c(c3)OCO4)cc2C12CCN(S(=O)(=O)C(F)(F)F)CC2,> 50 µM

# Tested on: Jurkat
# Test: Cytotoxicity against ITK positive human Jurkat cells assessed as inhibition of cell growth by MTS assay
row,Compound,IC50
1,O=C(N1CCC2(CC1)C(=O)Nc1ncc(-c3ccc4c(c3)OCO4)cc12)C(F)(F)F,10.8 µM
2,CC(F)(F)C(=O)N1CCC2(CC1)C(=O)Nc1ncc(-c3ccc4c(c3)OCO4)cc12,3.58 µM
3,O=C(N1CCC2(CC1)C(=O)Nc1ncc(-c3ccc4c(c3)OCO4)cc12)C1(O)CC1,> 50 µM
4,O=C1Nc2ncc(-c3ccc4c(c3)OCO4)cc2C12CCN(S(=O)(=O)C(F)(F)F)CC2,> 50 µM

# Tested on: CCRF-CEM
# Test: Cytotoxicity against ITK positive human CCRF-CEM cells assessed as inhibition of cell growth by MTS assay
row,Compound,IC50
1,O=C(N1CCC2(CC1)C(=O)Nc1ncc(-c3ccc4c(c3)OCO4)cc12)C(F)(F)F,20.7 µM
2,CC(F)(F)C(=O)N1CCC2(CC1)C(=O)Nc1ncc(-c3ccc4c(c3)OCO4)cc12,17.2 µM
3,O=C(N1CCC2(CC1)C(=O)Nc1ncc(-c3ccc4c(c3)OCO4)cc12)C1(O)CC1,> 50 µM
4,O=C1Nc2ncc(-c3ccc4c(c3)OCO4)cc2C12CCN(S(=O)(=O)C(F)(F)F)CC2,> 50 µM

# Tested on: Ramos
# Test: Cytotoxicity against BTK positive human Ramos cells assessed as inhibition of cell growth by MTS assay
row,Compound,IC50
1,O=C(N1CCC2(CC1)C(=O)Nc1ncc(-c3ccc4c(c3)OCO4)cc12)C(F)(F)F,> 50 µM
2,CC(F)(F)C(=O)N1CCC2(CC1)C(=O)Nc1ncc(-c3ccc4c(c3)OCO4)cc12,3.06 µM
3,O=C(N1CCC2(CC1)C(=O)Nc1ncc(-c3ccc4c(c3)OCO4)cc12)C1(O)CC1,> 50 µM
4,O=C1Nc2ncc(-c3ccc4c(c3)OCO4)cc2C12CCN(S(=O)(=O)C(F)(F)F)CC2,> 50 µM

# Tested on: K562
# Test: Cytotoxicity against BTK positive human K562 cells assessed as inhibition of cell growth by MTS assay
row,Compound,IC50
1,O=C(N1CCC2(CC1)C(=O)Nc1ncc(-c3ccc4c(c3)OCO4)cc12)C(F)(F)F,> 50 µM
2,CC(F)(F)C(=O)N1CCC2(CC1)C(=O)Nc1ncc(-c3ccc4c(c3)OCO4)cc12,> 50 µM
3,O=C(N1CCC2(CC1)C(=O)Nc1ncc(-c3ccc4c(c3)OCO4)cc12)C1(O)CC1,> 50 µM
4,O=C1Nc2ncc(-c3ccc4c(c3)OCO4)cc2C12CCN(S(=O)(=O)C(F)(F)F)CC2,> 50 µM

# Tested on: not listed separately
# Test: Cytotoxicity against ITK/BTK null human MRC5 cells assessed as inhibition of cell growth by MTS assay
# Format: toxicity, cell-based
row,Compound,IC50
1,O=C(N1CCC2(CC1)C(=O)Nc1ncc(-c3ccc4c(c3)OCO4)cc12)C(F)(F)F,> 50 µM
2,CC(F)(F)C(=O)N1CCC2(CC1)C(=O)Nc1ncc(-c3ccc4c(c3)OCO4)cc12,> 50 µM
3,O=C(N1CCC2(CC1)C(=O)Nc1ncc(-c3ccc4c(c3)OCO4)cc12)C1(O)CC1,> 50 µM
4,O=C1Nc2ncc(-c3ccc4c(c3)OCO4)cc2C12CCN(S(=O)(=O)C(F)(F)F)CC2,> 50 µM

# Tested on: not listed separately
# Test: Cytotoxicity against ITK/BTK null human BJ cells assessed as inhibition of cell growth by MTS assay
# Format: toxicity, cell-based
row,Compound,IC50
1,O=C(N1CCC2(CC1)C(=O)Nc1ncc(-c3ccc4c(c3)OCO4)cc12)C(F)(F)F,> 50 µM
2,CC(F)(F)C(=O)N1CCC2(CC1)C(=O)Nc1ncc(-c3ccc4c(c3)OCO4)cc12,> 50 µM
3,O=C(N1CCC2(CC1)C(=O)Nc1ncc(-c3ccc4c(c3)OCO4)cc12)C1(O)CC1,> 50 µM
4,O=C1Nc2ncc(-c3ccc4c(c3)OCO4)cc2C12CCN(S(=O)(=O)C(F)(F)F)CC2,> 50 µM

# Target: T1, Tyrosine-protein kinase ITK/TSK (Homo sapiens, UniProt Q08881)
# T1 sequence (Q08881 whole entry): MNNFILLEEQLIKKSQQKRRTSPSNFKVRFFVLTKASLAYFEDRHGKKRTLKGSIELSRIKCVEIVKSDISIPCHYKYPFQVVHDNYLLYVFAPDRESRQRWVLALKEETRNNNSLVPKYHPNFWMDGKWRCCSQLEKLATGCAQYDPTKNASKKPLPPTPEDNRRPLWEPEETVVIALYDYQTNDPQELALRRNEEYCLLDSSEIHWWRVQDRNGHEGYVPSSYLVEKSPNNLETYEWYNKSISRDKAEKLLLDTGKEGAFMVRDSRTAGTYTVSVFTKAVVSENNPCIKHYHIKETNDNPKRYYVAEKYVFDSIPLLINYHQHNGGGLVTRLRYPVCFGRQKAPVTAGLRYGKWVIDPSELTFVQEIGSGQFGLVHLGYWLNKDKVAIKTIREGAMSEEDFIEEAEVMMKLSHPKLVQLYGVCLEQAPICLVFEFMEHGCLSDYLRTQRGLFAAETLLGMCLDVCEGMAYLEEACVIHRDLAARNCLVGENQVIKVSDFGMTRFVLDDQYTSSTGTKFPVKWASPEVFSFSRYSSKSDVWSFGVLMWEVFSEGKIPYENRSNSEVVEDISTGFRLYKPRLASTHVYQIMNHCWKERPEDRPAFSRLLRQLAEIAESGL
# Test: Inhibition of human ITK using poly (Glu:Tyr) as substrate in presence of ATP by ADP-glo kinase assay
row,Compound,IC50
1,CC(F)(F)C(=O)N1CCC2(CC1)C(=O)Nc1ncc(-c3ccc4c(c3)OCO4)cc12,0.91 µM

# From ChEMBL document CHEMBL6115013, “Design, synthesis, and biological evaluation of novel azaspirooxindolinone derivatives as potent inhibitors of ITK and BTK-dependent cancers” (Bioorg Med Chem, 2025)
